Literature values in patent US4913906A, “Novel controlled release dosage form of valproic acid” (priority 1985, dated 1990).

Assays:
[1] = all currently used antiepileptics

SMILES | elimination half-life compared with other antiepileptics [1] | fluctuations in the drug plasma level (chronic valpromide treatment) | absorption rate (compared with valproic acid) | biotransformation to VPA (in vivo)
CCCC(CCC)C(=O)O [VPA, valproic acid] | shortest elimination half-life of all currently used antiepileptics | – | – | –
CCCC(CCC)C(N)=O [Valpromide, valpromide] | – | fewer fluctuations in the drug plasma level | slower absorption rate than valproic acid | biotransform to VPA before reaching the systemic circulation
